Laboratory results published in patent publication US11229623B2 (GlaxoSmithKline Intellectual Property (No.2) Limited, priority 2016, dated 2022).

Target: T1, human TRPV4 (Homo sapiens, UniProt Q9HBA0)
T1 construct: expressed in transfected cells; host or cells: BHK/AC9 cells transduced with BacMam virus
Assay: FLIPR assay for hTRPV4 expressed in BHK cells: inhibition of Agonist Compound-induced calcium signal
Assay type: cell-based
Details: hTRPV4 FLIPR assay; average in at least one set of experimental runs; read-out: average IC50
Method: FLIPR Assay for hTRPV4 Expressed in BHK Cells:
TRPV4 channel activation results in an influx of divalent and monovalent cations including calcium. The resulting changes in intracellular calcium were monitored using a calcium specific fluorescent dye Fluo-4 (MDS Analytical Technologies). BHK/AC9 cells transduced with BacMam virus expressing the human TRPV4 gene at a MOI of 78 were plated in a 384 well poly-D lysine coated plate (15,000 cells/well in 50 μL culture medium containing DMEM/F12 with 15 mM HEPES, 10% FBS, 1% Penicillin-Streptomycin and 1% L-glutamine). Cells were incubated for 24 hours at 37° C. and 5% CO2. Culture medium was then aspirated using a Tecan plate-washer and replaced with 20 μL/well of dye loading buffer: HBSS, 500 μM Brilliant Black (MDS Analytical Technologies), and 2 μM Fluo-4 AM. Dye loaded plates were then incubated in the dark at room temperature for 1-1.5 hours.

T1 sequence (Q9HBA0 whole entry): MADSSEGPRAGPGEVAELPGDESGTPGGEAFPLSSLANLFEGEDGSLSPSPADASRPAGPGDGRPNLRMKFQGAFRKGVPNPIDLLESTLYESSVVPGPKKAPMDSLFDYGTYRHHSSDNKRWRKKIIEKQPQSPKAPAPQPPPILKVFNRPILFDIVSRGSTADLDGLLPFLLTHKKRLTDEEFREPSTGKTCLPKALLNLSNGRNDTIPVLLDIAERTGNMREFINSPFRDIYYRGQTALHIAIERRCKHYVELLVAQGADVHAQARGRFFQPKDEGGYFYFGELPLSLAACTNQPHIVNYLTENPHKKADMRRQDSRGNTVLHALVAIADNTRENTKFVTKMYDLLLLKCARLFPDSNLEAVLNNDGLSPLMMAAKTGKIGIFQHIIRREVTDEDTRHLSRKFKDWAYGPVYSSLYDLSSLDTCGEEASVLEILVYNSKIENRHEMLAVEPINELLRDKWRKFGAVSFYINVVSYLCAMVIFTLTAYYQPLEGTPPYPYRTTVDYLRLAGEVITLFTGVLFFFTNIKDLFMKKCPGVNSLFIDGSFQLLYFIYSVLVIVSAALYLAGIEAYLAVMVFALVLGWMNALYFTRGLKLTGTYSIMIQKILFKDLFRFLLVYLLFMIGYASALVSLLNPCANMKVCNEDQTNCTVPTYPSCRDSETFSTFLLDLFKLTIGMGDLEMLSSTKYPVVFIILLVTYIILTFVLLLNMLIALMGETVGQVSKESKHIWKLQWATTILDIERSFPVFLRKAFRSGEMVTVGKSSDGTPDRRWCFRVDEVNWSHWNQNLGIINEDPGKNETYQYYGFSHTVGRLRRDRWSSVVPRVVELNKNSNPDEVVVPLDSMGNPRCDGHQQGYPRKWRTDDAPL

SMILES | IC50
N#Cc1cc(C(F)(F)F)ccc1S(=O)(=O)N1C[C@H](Oc2ccc(Cl)cc2)[C@](O)(CO)C1 [Example 6, 2-(((3R,4S)-4-(4-chlorophenoxy)-3-hydroxy-3-(hydromethyl)pyrrolidin-1-yl)sulfonyl)-5-(trifluoromethyl)benzonitrile] | 3 nM

Same assay, conditions: hTRPV4 in BHK/AC9 cells, FLIPR calcium signal, agonist at EC80; reported as range class; read-out: IC50

SMILES | IC50
N#Cc1ccc(O[C@H]2CN(S(=O)(=O)c3ccc(C(F)(F)F)cc3C#N)C[C@@]2(O)CO)cc1F [Example 1, 4-(((3S,4R)-1-((2-cyano-4-(trifluoromethyl)phenyl)sulfonyl)-4-hydroxy-4-(hydroxymethyl)pyrrolidin-3-yl)oxy)-2-fluorobenzonitrile] | 0.1 to 10 nM
N#Cc1ccc(O[C@H]2CN(S(=O)(=O)c3ccc(Cl)cc3Cl)C[C@@]2(O)CO)cc1F [Example 2, 4-(((3S,4R)-1-((2,4-dichlorophenyl)sulfonyl)-4-hydroxy-4-(hydroxymethyl)pyrrolidin-3-yl)oxy)-2-fluorobenzonitrile] | 0.1 to 10 nM
N#Cc1ccc(O[C@H]2CN(S(=O)(=O)c3ccc(Cl)cc3C#N)C[C@@]2(O)CO)cc1F [Example 3, 4-(((3S,4R)-1-((4-chloro-2-cyanophenyl)sulfonyl)-4-hydroxy-4-(hydroxymethyl)pyrrolidin-3-yl)oxy)-2-fluorobenzonitrile] | 0.1 to 10 nM
O=S(=O)(c1ccc(Cl)cc1Cl)N1C[C@H](Oc2ccc(F)c(F)c2)[C@](O)(CO)C1 [Example 4, (3R,4S)-1-((2,4-dichlorophenyl)sulfonyl)-4-(3,4-difluorophenoxy)-3-(hydroxymethyl)pyrrolidin-3-ol] | 10 to 100 nM
N#Cc1ccc(O[C@H]2CN(S(=O)(=O)c3ccc(C(F)(F)F)nc3)C[C@@]2(O)CO)cc1F [Example 5, 2-fluoro-4-(((3S,4R)-4-hydroxy-4-(hydroxymethyl)-1-((6-(trifluoromethyl)pyridin-3-yl)sulfonyl)pyrrolidin-3-yl)oxy)benzonitrile] | 100 to 1000 nM
N#Cc1cc(C(F)(F)F)ccc1S(=O)(=O)N1C[C@H](Oc2ccc(Cl)cc2)[C@](O)(CO)C1 [Example 6, 2-(((3R,4S)-4-(4-chlorophenoxy)-3-hydroxy-3-(hydromethyl)pyrrolidin-1-yl)sulfonyl)-5-(trifluoromethyl)benzonitrile] | 0.1 to 10 nM
N#Cc1cc(C(F)(F)F)ccc1S(=O)(=O)N1C[C@H](Oc2ccc3nonc3c2)[C@](O)(CO)C1 [Example 7, 2-(((3R,4S)-4-(benzo[c][1,2,5]oxadiazol-5-yloxy)-3-hydroxy-3-(hydroxymethyl)pyrrolidin-1-yl)sulfonyl)-5-(trifluoromethyl)benzonitrile] | 0.1 to 10 nM
N#Cc1cc(Cl)ccc1S(=O)(=O)N1C[C@H](Oc2ccc(F)c(F)c2)[C@](O)(CO)C1 [Example 8, 5-chloro-2-(((3R,4S)-4-(3,4-difluorophenoxy)-3-hydroxy-3-(hydroxymethyl)pyrrolidin-1-yl)sulfonyl)benzonitrite] | 0.1 to 10 nM
N#Cc1ccc(O[C@H]2CN(S(=O)(=O)c3ccc(C(F)(F)F)cc3C#N)C[C@@]2(O)CO)c(F)c1 [Example 9, 2-(((3R,4S)-4-(4-cyano-2-fluorophenoxy)-3-hydroxy-3-(hydroxymethyl)pyrrolidin-1-yl)sulfonyl)-5-(trifluoromethyl)benzonitrile] | 0.1 to 10 nM
COc1cc(C#N)ccc1O[C@H]1CN(S(=O)(=O)c2ccc(C(F)(F)F)cc2C#N)C[C@@]1(O)CO [Example 10, 2-(((3R,4S)-4-(4-cyano-2-methoxyphenoxy)-3-hydroxy-3-(hydroxymethyl)pyrrolidin-1-yl)sulfonyl)-5-(trifluoromethyl)benzonitrile] | 10 to 100 nM
N#Cc1ccc(O[C@H]2CN(S(=O)(=O)c3ccc(C(F)(F)F)cc3C#N)C[C@@]2(O)CO)cc1C(F)(F)F [Example 11, 4-(((3S,4R)-1-((2-cyano-4-(trifluoromethyl)phenyl)sulfonyl)-4-hydroxy-4-(hydroxymethyl)pyrrolidin-3-yl)oxy)-2-(trifluoromethyl)benzonitrile] | 10 to 100 nM
CCOc1cc(C#N)ccc1O[C@H]1CN(S(=O)(=O)c2ccc(C(F)(F)F)cc2C#N)C[C@@]1(O)CO [Example 12, 2-(((3R,4S)-4-(4-cyano-2-ethoxyphenoxy)-3-hydroxy-3-(hydroxymethyl)pyrrolidin-1-yl)sulfonyl)-5-(trifluoromethyl)benzonitrile] | 0.1 to 10 nM
N#Cc1ncc(O[C@H]2CN(S(=O)(=O)c3ccc(C(F)(F)F)cc3C#N)C[C@@]2(O)CO)cn1 [Example 13, 5-(((3S,4R)-1-((2-cyano-4-(trifluoromethyl)phenyl)sulfonyl)-4-hydroxy-4-(hydroxymethyl)pyrrolidin-3-yl)oxy)pyrimidine-2-carbonitrile] | 10 to 100 nM
N#Cc1ccc(O[C@H]2CN(S(=O)(=O)c3ccc(C(F)(F)F)cc3C#N)C[C@@]2(O)CO)c(Cl)c1 [Example 14, 2-(((3R,4S)-4-(2-chloro-4-cyanophenoxy)-3-hydroxy-3-(hydroxymethyl)pyrrolidin-1-yl)sulfonyl)-5-(trifluoromethyl)benzonitrile] | 0.1 to 10 nM
N#Cc1cc(C(F)(F)F)ccc1S(=O)(=O)N1C[C@H](Oc2ccc(C#N)c(F)c2F)[C@](O)(CO)C1 [Example 15, 4-(((3S,4R)-1-((2-cyano-4-(trifluoromethyl)phenyl)sulfonyl)-4-hydroxy-4-(hydroxymethyl)pyrrolidin-3-yl)oxy)-2,3-difluorobenzonitrile] | 0.1 to 10 nM
Cc1cc(C#N)ccc1O[C@H]1CN(S(=O)(=O)c2ccc(C(F)(F)F)cc2C#N)C[C@@]1(O)CO [Example 16, 2-(((3R,4S)-4-(4-cyano-2-methylphenoxy)-3-hydroxy-3-(hydroxymethyl)pyrrolidin-1-yl)sulfonyl)-5-(trifluoromethyl)benzonitrile] | 0.1 to 10 nM
N#Cc1ccc(O[C@H]2CN(S(=O)(=O)c3ccc(C(F)(F)F)cc3C#N)C[C@@]2(O)CO)c(C(F)(F)F)c1 [Example 17, 2-(((3R,4S)-4-(4-cyano-2-(trifluoromethyl)phenoxy)-3-hydroxy-3-(hydroxymethyl)pyrrolidin-1-yl)sulfonyl)-5-(trifluoromethyl)benzonitrile] | 0.1 to 10 nM
N#Cc1ccc2cc(O[C@H]3CN(S(=O)(=O)c4ccc(C(F)(F)F)cc4C#N)C[C@@]3(O)CO)ccc2c1 [Example 18, 6-(((3S,4R)-1-((2-cyano-4-(trifluoromethyl)phenyl)sulfonyl)-4-hydroxy-4-(hydroxymethyl)pyrrolidin-3-yl)oxy)-2-naphthonitrile] | 10 to 100 nM
N#Cc1cc(F)c(O[C@H]2CN(S(=O)(=O)c3ccc(C(F)(F)F)cc3C#N)C[C@@]2(O)CO)cc1F [Example 19, 4-(((3S,4R)-1-((2-cyano-4-(trifluoromethyl)phenyl)sulfonyl)-4-hydroxy-4-(hydroxymethyl)pyrrolidin-3-yl)oxy)-2,5-difluorobenzonitrile] | 0.1 to 10 nM
N#Cc1cc(C(F)(F)F)ccc1S(=O)(=O)N1C[C@H](Oc2cc(F)c(C#N)c(F)c2)[C@](O)(CO)C1 [Example 20, 4-(((3S,4R)-1-((2-cyano-4-(trifluoromethyl)phenyl)sulfonyl)-4-hydroxy-4-(hydroxymethyl)pyrrolidin-3-yl)oxy)-2,6-difluorobenzonitrile] | 0.1 to 10 nM
N#Cc1ccc(O[C@H]2CN(S(=O)(=O)c3ccc(C(F)(F)F)cc3C#N)C[C@@]2(O)CO)cc1OC(F)(F)F [Example 21, 4-(((3S,4R)-1-((2-cyano-4-(trifluoromethyl)phenyl)sulfonyl)-4-hydroxy-4-(hydroxymethyl)pyrrolidin-3-yl)oxy)-2-(trifluoromethoxy)benzonitrile] | 10 to 100 nM
N#Cc1cc(Cl)ccc1S(=O)(=O)N1C[C@H](Oc2cc(F)c(F)c(F)c2)[C@](O)(CO)C1 [Example 22, 5-chloro-2-(((3R,4S)-3-hydroxy-3-(hydroxymethyl)-4-(3,4,5-trifluorophenoxy)pyrrolidin-1-yl)sulfonyl)benzonitrile] | 0.1 to 10 nM
N#Cc1cc(Cl)ccc1S(=O)(=O)N1C[C@H](Oc2ccc(F)c(F)c2F)[C@](O)(CO)C1 [Example 23, 5-chloro-2-(((3R,4S)-3-hydroxy-3-(hydroxymethyl)-4-(2,3,4-trifluorophenoxy)pyrrolidin-1-yl)sulfonyl)benzonitrile] | 0.1 to 10 nM
N#Cc1cc(Cl)ccc1S(=O)(=O)N1C[C@H](Oc2cc(F)c(F)cc2F)[C@](O)(CO)C1 [Example 24, 5-chloro-2-(((3R,4S)-3-hydroxy-3-(hydroxymethyl)-4-(2,4,5-trifluorophenoxy)pyrrolidin-1-yl)sulfonyl)benzonitrile] | 0.1 to 10 nM
N#Cc1cc(C(F)(F)F)ccc1S(=O)(=O)N1C[C@H](Oc2ccc(F)c(F)c2)[C@](O)(CO)C1 [Example 25, 2-(((3R,4S)-4-(3,4-difluorophenoxy)-3-hydroxy-3-(hydroxymethyl)pyrrolidin-1-yl)sulfonyl)-5-(trifluoromethyl)benzonitrile] | 0.1 to 10 nM
N#Cc1cc(C(F)(F)F)ccc1S(=O)(=O)N1C[C@H](Oc2cc(F)c(F)c(F)c2)[C@](O)(CO)C1 [Example 26, 2-(((3R,4S)-3-hydroxy-3-(hydroxymethyl)-4-(3,4,5-trifluorophenoxy)pyrrolidin-1-yl)sulfonyl)-5-(trifluoromethyl)benzonitrile] | 10 to 100 nM
N#Cc1cc(C(F)(F)F)ccc1S(=O)(=O)N1C[C@H](Oc2cc(F)c(F)cc2F)[C@](O)(CO)C1 [Example 27, 2-(((3R,4S)-3-hydroxy-3-(hydroxymethyl)-4-(2,4,5-trifluorophenoxy)pyrrolidin-1-yl)sulfonyl)-5-(trifluoromethyl)benzonitrile] | 0.1 to 10 nM
N#Cc1cc(C(F)(F)F)ccc1S(=O)(=O)N1C[C@H](Oc2ccc(F)c(F)c2F)[C@](O)(CO)C1 [Example 28, 2-(((3R,4S)-3-hydroxy-3-(hydroxymethyl)-4-(2,3,4-trifluorophenoxy)pyrrolidin-1-yl)sulfonyl)-5-(trifluoromethyl)benzonitrile] | 10 to 100 nM
